Experimental data: PubChem BioAssay (NCI)
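Interpolation was linear, between the two tested concentrations surrounding the appropriate level; five concentrations were tested over 48 hours in 96-well plates. GI50: concentration for 50% inhibition of growth. At the TGI there is no net growth.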

Experiments:
Experiment in all cases: NCI-60 cell line screen, 48 h
RXF-631 renal = system: RXF-631 renal
MDA-N = system: MDA-N
MDA-MB-435 = system: MDA-MB-435
MDA-MB-231 breast = system: MDA-MB-231 breast
PC-3 prostate = system: PC-3 prostate

Structure (SMILES): COC1(Cc2ccccc2)C(=O)c2ccccc2N1C(C)=O (stereo not given)
- TGI (RXF-631 renal): > 100 µM

Structure (SMILES): CCOC(=O)c1cn(CC)c2cc3c(cc2c1=O)SCS3
- TGI (RXF-631 renal): > 100 µM

Structure (SMILES): CN(C)C(=S)SCC(N)=O
- TGI (MDA-N): > 100 µM
- TGI (MDA-MB-435): > 100 µM
- TGI (MDA-MB-231 breast): > 100 µM
- TGI (PC-3 prostate): > 100 µM

Structure (SMILES): COc1ccc(CN=C(N)N=C(N)N)cc1OC
- GI50 (MDA-MB-435): > 1000 µM
- TGI (MDA-MB-435): > 1000 µM
- GI50 (MDA-MB-231 breast): > 1000 µM
- TGI (MDA-MB-231 breast): > 1000 µM

Structure (SMILES): CCCCCCCCCCCCCCCCCc1nnc(N)o1
- TGI (RXF-631 renal): > 100 µM

Structure (SMILES): NS(=O)(=O)c1ccc(N2N=C(c3cccs3)CC2c2ccccc2O)cc1 (stereo not given)
- GI50 (MDA-MB-435): 0.704 µM
- TGI (MDA-MB-435): 1.8 µM
- GI50 (MDA-MB-231 breast): 0.972 µM
- TGI (MDA-MB-231 breast): 3.19 µM
- GI50 (PC-3 prostate): 1.05 µM
- TGI (PC-3 prostate): 4.38 µM

Structure (SMILES): COc1cc2c(cc1OCCCCCn1c3ccccc3c3ccccc31)N=C[C@@H]1CCCN1C2=O
- GI50 (MDA-MB-435): 1.69 µM
- TGI (MDA-MB-435): 3.29 µM
- GI50 (MDA-MB-231 breast): 1.73 µM
- TGI (MDA-MB-231 breast): 3.69 µM
- GI50 (PC-3 prostate): 2.36 µM
- TGI (PC-3 prostate): 7.73 µM

Structure (SMILES): CCCCN(CCCC)CCC(O)c1cc2ccc(C(F)(F)F)cc2c2cc(C(F)(F)F)ccc12 (stereo not given)
- GI50 (MDA-MB-435): 2.13 µM
- TGI (MDA-MB-435): 4.59 µM
- GI50 (MDA-MB-231 breast): 1.33 µM
- TGI (MDA-MB-231 breast): 3.16 µM
- GI50 (PC-3 prostate): 2.52 µM
- TGI (PC-3 prostate): 9.67 µM

Structure (SMILES): [O-][n+]1c2cc(CN3CCOCC3)c(CN3CCOCC3)cc2[n+]([O-])c2c(O)cccc21
- TGI (RXF-631 renal): > 55.9 µM

Structure (SMILES): COc1ccc(OC)c(/C=N/N=C2\C(=O)Nc3c(Cl)cc(Cl)cc32)c1
- TGI (MDA-N): 40.9 µM
- TGI (MDA-MB-435): > 100 µM
- TGI (MDA-MB-231 breast): > 100 µM
- TGI (PC-3 prostate): > 100 µM

Structure (SMILES): C=C(C)C(=O)O[C@H]1CC2=CC(CC(C)=C[C@H]3OC(=O)C(=C)C13)OC2=O (stereo not given in full)
- TGI (MDA-N): 89.4 µM
- TGI (MDA-MB-435): > 100 µM
- TGI (MDA-MB-231 breast): 60.8 µM
- TGI (PC-3 prostate): 53.5 µM

Structure (SMILES): c1ccc(/C(=N\Nc2ccc3ccccc3n2)c2ccccn2)cc1
- GI50 (MDA-MB-435): 0.66 µM
- TGI (MDA-MB-435): 16.7 µM
- GI50 (MDA-MB-231 breast): 0.839 µM
- TGI (MDA-MB-231 breast): 43.4 µM
- GI50 (PC-3 prostate): 1.25 µM
- TGI (PC-3 prostate): 55.3 µM

Structure (SMILES): COc1cc2c(Cc3cc(OCc4ccccc4)ccc3N)nccc2c(OC)c1OC
- TGI (RXF-631 renal): > 10 µM

Structure (SMILES): O=CN1N=C(c2ccc(Nc3ccnc4cc(Cl)ccc34)cc2)CC1c1ccc(Cl)cc1 (stereo not given)
- GI50 (MDA-MB-435): 0.198 µM
- TGI (MDA-MB-435): 0.48 µM
- GI50 (MDA-MB-231 breast): 1.43 µM
- TGI (MDA-MB-231 breast): > 100 µM
- GI50 (PC-3 prostate): 0.475 µM
- TGI (PC-3 prostate): > 100 µM

Structure (SMILES): CN(C)CC1=Nc2cccc3cccc(c23)N1
- TGI (MDA-N): 35 µM
- TGI (MDA-MB-435): 38.1 µM
- TGI (MDA-MB-231 breast): 34.7 µM
- TGI (PC-3 prostate): 32.3 µM

Structure (SMILES): O=C(NN1C(=O)CSC12CCC(c1ccccc1)CC2)c1[nH]c2ccc(F)cc2c1-c1ccccc1 (stereo not given)
- GI50 (MDA-MB-435): 18.8 µM
- TGI (MDA-MB-435): 36.7 µM
- GI50 (MDA-MB-231 breast): 16.9 µM
- TGI (MDA-MB-231 breast): 31.6 µM
- GI50 (PC-3 prostate): 18.1 µM
- TGI (PC-3 prostate): 39.6 µM

Structure (SMILES): COc1ccc2c(c1OC)C(=O)O[C@@H]2[C@H]1c2c(c(Br)c3c(c2OC)OCO3)CCN1C
- GI50 (MDA-MB-435): 3.55 µM
- TGI (MDA-MB-435): 29.6 µM
- GI50 (PC-3 prostate): 9.11 µM
- TGI (PC-3 prostate): > 100 µM

Structure (SMILES): CNC(=O)c1cncc(/C=C/c2c(Cl)cccc2Cl)c1
- GI50 (MDA-MB-435): 6.88 µM
- TGI (MDA-MB-435): > 25 µM
- GI50 (MDA-MB-231 breast): > 15.8 µM
- TGI (MDA-MB-231 breast): > 25 µM
- GI50 (PC-3 prostate): > 21.6 µM
- TGI (PC-3 prostate): > 25 µM

Structure (SMILES): Cc1cc(Cl)ccc1Nc1nc(C(F)(F)F)ccc1C(=O)Nc1cccc(C(F)(F)F)c1
- GI50 (MDA-MB-435): 3.76 µM
- TGI (MDA-MB-435): 16.1 µM
- GI50 (MDA-MB-231 breast): 2.03 µM
- TGI (MDA-MB-231 breast): 8.15 µM
- GI50 (PC-3 prostate): 3.63 µM
- TGI (PC-3 prostate): 15.5 µM

Structure (SMILES): CCc1nc(N)nc(N)c1C#CC(C)c1cc(-c2ccnc(C)c2)c2oc(C)nc2c1 (stereo not given)
- GI50 (MDA-MB-435): < 0.01 µM
- TGI (MDA-MB-435): 12.3 µM
- GI50 (MDA-MB-231 breast): 0.527 µM
- TGI (MDA-MB-231 breast): 16.9 µM
- GI50 (PC-3 prostate): < 0.01 µM
- TGI (PC-3 prostate): 12.1 µM

Structure (SMILES): Cc1cccc(N=C2NC(=O)C(CC(=O)Nc3ccccc3Cl)S2)c1 (stereo not given)
- TGI (RXF-631 renal): > 100 µM

Structure (SMILES): COc1ccc(/C=N\O[Si](C)(C)C(C)(C)C)cc1O[Si](C)(C)C(C)(C)C
- TGI (RXF-631 renal): 37.4 µM

Structure (SMILES): c1ccc2c(CN3CCC(C4CCN(Cc5cccc6ccccc56)CC4)CC3)cccc2c1
- TGI (RXF-631 renal): 35.5 µM
- TGI (MDA-N): 25.2 µM
- TGI (MDA-MB-435): 11.4 µM
- TGI (MDA-MB-231 breast): > 74.1 µM
- TGI (PC-3 prostate): > 100 µM

Structure (SMILES): Cc1ccccc1NC(=O)c1cc2ccccc2cc1O
- GI50 (MDA-MB-435): 3.04 µM
- TGI (MDA-MB-435): > 100 µM
- GI50 (MDA-MB-231 breast): 3.17 µM
- TGI (MDA-MB-231 breast): 15.2 µM
- GI50 (PC-3 prostate): 2.7 µM
- TGI (PC-3 prostate): 8.81 µM

Structure (SMILES): COc1ccc2c(c1)C=C1CSCC3=Cc4cc(OC)ccc4OC13O2
- GI50 (MDA-MB-231 breast): 0.568 µM
- TGI (MDA-MB-231 breast): > 100 µM
- GI50 (PC-3 prostate): 0.36 µM
- TGI (PC-3 prostate): > 100 µM

Structure (SMILES): CC1=NN(c2ccccc2)C(=O)C1N=Nc1ccc(S(N)(=O)=O)cc1 (stereo not given)
- TGI (MDA-N): > 100 µM
- TGI (MDA-MB-435): > 100 µM
- TGI (MDA-MB-231 breast): > 100 µM
- TGI (PC-3 prostate): > 100 µM

Structure (SMILES): O=C1NC(c2ccccc2)N=C2Oc3ccccc3C=C12 (stereo not given)
- TGI (MDA-N): 1.12 µM
- TGI (MDA-MB-435): 0.138 µM
- TGI (MDA-MB-231 breast): > 31.6 µM
- TGI (PC-3 prostate): > 100 µM

Structure (SMILES): CCCC(CCC)C(=O)OCC1(CO)C/C(=C\c2ccc(C(F)(F)F)cc2)C(=O)O1 (stereo not given)
- GI50 (MDA-MB-435): 0.304 µM
- TGI (MDA-MB-435): 19.3 µM
- GI50 (MDA-MB-231 breast): 7.66 µM
- TGI (MDA-MB-231 breast): 22.9 µM
- GI50 (PC-3 prostate): 12.3 µM
- TGI (PC-3 prostate): 25.4 µM

Structure (SMILES): Nc1ccc(C2=Nc3ccccc3SC(c3ccccc3O)C2)cc1 (stereo not given)
- TGI (RXF-631 renal): > 100 µM

Structure (SMILES): O=C(O)C1CC2CC(=O)C1C2 (stereo not given)
- TGI (RXF-631 renal): > 100 µM

Structure (SMILES): CNc1ncc2cc(Oc3ccc(F)cc3F)c(=O)n(C)c2n1
- GI50 (MDA-MB-435): > 25 µM
- TGI (MDA-MB-435): > 25 µM
- GI50 (MDA-MB-231 breast): > 24.1 µM
- TGI (MDA-MB-231 breast): > 25 µM
- GI50 (PC-3 prostate): > 25 µM
- TGI (PC-3 prostate): > 25 µM

Structure (SMILES): NC(=O)N/N=C(\CCC(=O)N(Cc1ccccc1)Cc1ccccc1)CC(=O)c1ccc(F)cc1
- TGI (RXF-631 renal): > 100 µM

Structure (SMILES): CC1=NN(C(=O)c2nn(-c3ccc(Cl)cc3)cc2O)C(=O)C1
- GI50 (MDA-MB-435): 4.12 µM
- TGI (MDA-MB-435): > 100 µM
- GI50 (MDA-MB-231 breast): 2.75 µM
- TGI (MDA-MB-231 breast): > 100 µM
- GI50 (PC-3 prostate): 0.348 µM
- TGI (PC-3 prostate): > 100 µM

Structure (SMILES): O=C1NN=CN2C(=O)CCC12 (stereo not given)
- TGI (RXF-631 renal): > 100 µM
